Active and inactive are the calls of the source. The calls are words filed in the database; no cut-off is given here.
Assays:
[1] = tested on: L1210; experiment: Antitumor activity against L1210 tumor cell growth in vitro and the value is expressed as % inhibition at a dose of 1 ug/mL; type: functional; conditions: Mus musculus
[2] = tested on: L1210; experiment: Antitumor activity against L1210 tumor cells in vivo and the value is expressed as T / C ([…]) at a dose of 10000 ug/kg; type: functional, Mus musculus
[3] = biological target: T1, Purine nucleoside phosphorylase (Bos taurus) (UniProt P55859); experiment: Antitumor activity by inhibiting purine nucleoside phosphorylase (PNPase) enzyme; NA means inactive.
T1 sequence (whole entry): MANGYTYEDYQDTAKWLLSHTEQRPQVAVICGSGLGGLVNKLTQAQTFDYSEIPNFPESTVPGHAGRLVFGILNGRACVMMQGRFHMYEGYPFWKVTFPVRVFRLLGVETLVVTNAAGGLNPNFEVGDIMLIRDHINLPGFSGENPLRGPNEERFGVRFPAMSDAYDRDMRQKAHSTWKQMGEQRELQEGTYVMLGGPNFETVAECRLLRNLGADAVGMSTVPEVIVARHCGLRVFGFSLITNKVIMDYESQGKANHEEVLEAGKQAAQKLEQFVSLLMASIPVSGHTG

[4] = tested on: L1210; experiment: Antitumor activity against L1210 tumor cells tested in vivo; NA means inactive.; type: functional, organism-based; conditions: Mus musculus

| Structure (SMILES) | inhibition at 1 µg/mL [1] | T/C [2] | inhibition [3] | T/C [4] |
| --- | --- | --- | --- | --- |
| CC(O)[C@H]1O[C@@H](n2cnc3c(S)ncnc32)[C@H](O)[C@@H]1O (stereo not given in full) | 50% | 146 | inactive | – |
| CC(O)[C@H]1O[C@@H](n2cnc3c(O)ncnc32)[C@H](O)[C@@H]1O (stereo not given in full) | – | – | inactive | – |
| CC(O)[C@H]1O[C@@H](n2cnc3ncnc(O)c32)[C@H](O)[C@@H]1O (stereo not given in full) | – | – | – | inactive |

Reference: ChEMBL document CHEMBL1122381, “Synthesis and antitumor activity of 7- and 9-(6'-deoxy-alpha-L-talofuranosyl) hypoxanthine and 9-(6'-deoxy-alpha-L-talofuranosyl)-6-thiopurine” (1983)
